Laboratory results from PMC5779714, “Metallochaperone UreG serves as a new target for design of urease inhibitor: A novel strategy for development of antimicrobials” (PLoS Biology, 2018).
“And” between values parts separate entries of the source, which are not always exact repeats. Equal entries are not always repeated. Where two headings read alike, the source gives them in different places.

What was measured:
urease [1] = tested on: urease
urease [2] = tested on: urease; remark: listed apart in the source
[3] = tested on: AGS cells with H. pylori infection; assay: AGS cells with H. pylori infection, inhibitors administrated to the AGS cells (S20 Fig); format: cell-based, human; conditions: 10 μM administrated to AGS cells with H. pylori infection
Text: As expected, low viability of AGS with the supplement of cmpd4 and cmpd8 was observed due to the toxicity of small compounds to mammalian cells. […] (PNG) Click here for additional data file.

H. pylori urease [4] = target: H. pylori urease (Helicobacter pylori, UniProt P14916+P69996); format: biochemical; design: endogenous in cells; host or cells: H. pylori strain 26695 or a clinical isolate
H. pylori urease (Helicobacter pylori, UniProt P14916+P69996), sequence (P69996 whole entry): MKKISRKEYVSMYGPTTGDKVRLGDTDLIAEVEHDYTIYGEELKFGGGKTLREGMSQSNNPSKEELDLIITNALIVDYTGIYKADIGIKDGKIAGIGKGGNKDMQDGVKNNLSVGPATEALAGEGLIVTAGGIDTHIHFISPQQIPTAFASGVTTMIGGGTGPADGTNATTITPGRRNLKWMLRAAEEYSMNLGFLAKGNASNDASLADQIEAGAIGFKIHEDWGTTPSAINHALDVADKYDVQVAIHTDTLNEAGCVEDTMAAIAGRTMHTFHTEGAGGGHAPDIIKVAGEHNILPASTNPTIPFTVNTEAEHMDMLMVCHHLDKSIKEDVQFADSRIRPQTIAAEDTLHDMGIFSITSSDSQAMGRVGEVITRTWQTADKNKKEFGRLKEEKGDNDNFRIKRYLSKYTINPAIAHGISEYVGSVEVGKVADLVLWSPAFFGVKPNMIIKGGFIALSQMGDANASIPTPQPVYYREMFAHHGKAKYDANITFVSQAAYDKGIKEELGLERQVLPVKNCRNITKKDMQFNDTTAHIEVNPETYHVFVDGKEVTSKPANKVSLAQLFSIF
H. pylori urease (Helicobacter pylori, UniProt P14916+P69996), sequence (P14916 whole entry): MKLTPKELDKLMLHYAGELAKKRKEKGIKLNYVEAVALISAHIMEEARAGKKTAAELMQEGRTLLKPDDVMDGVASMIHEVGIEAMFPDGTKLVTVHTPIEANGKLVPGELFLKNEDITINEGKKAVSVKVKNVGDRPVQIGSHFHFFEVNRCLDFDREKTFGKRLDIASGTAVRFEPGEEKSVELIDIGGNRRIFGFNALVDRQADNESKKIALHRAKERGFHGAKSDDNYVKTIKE

urease [5] = target: T1, urease (Pseudomonas aeruginosa, UniProt Q9HUU5+Q9HUU6+Q9HUU8); assay: Urease activity of extracted P. aeruginosa urease (in vitro); format: biochemical
T1 construct: endogenous in cells
T1 sequence (Q9HUU6 whole entry): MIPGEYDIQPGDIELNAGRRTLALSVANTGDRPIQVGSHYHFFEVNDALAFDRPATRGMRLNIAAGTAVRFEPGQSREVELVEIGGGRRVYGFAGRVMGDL
T1 sequence (Q9HUU5 whole entry): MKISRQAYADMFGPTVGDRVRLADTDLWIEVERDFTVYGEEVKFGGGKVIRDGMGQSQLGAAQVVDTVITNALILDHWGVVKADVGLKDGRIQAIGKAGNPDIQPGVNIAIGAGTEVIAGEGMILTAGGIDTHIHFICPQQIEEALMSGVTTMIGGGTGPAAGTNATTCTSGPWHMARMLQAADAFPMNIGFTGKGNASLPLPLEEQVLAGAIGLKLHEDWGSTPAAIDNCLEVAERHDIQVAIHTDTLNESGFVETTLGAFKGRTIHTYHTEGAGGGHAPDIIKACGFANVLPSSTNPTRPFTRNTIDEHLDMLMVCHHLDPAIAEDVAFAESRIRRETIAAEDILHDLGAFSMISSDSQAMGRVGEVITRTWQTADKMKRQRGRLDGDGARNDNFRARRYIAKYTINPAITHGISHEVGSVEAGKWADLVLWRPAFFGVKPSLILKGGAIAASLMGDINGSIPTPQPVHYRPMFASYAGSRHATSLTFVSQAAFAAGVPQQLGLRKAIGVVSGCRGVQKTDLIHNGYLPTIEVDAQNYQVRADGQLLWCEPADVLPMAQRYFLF
T1 sequence (Q9HUU8 whole entry): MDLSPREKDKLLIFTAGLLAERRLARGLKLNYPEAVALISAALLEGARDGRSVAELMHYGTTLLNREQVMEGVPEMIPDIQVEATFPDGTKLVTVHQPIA

[6] = tested on: AGS cells exposed to H. pylori; assay: Cell infection model: AGS cells exposed to H. pylori pre-cultured with inhibitors; format: cell-based, human; conditions: H. pylori pre-cultured with 10 μM inhibitor 24 h; MOI 20; 24 h infection; Hp alone 28.8%
urease [7] = target: T2, urease (Proteus mirabilis, UniProt P17086+P17087+P17088); format: biochemical
T2 construct: endogenous in cells
T2 sequence (P17087 whole entry): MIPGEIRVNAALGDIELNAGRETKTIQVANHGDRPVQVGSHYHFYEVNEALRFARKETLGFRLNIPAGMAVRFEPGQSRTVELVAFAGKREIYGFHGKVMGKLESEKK
T2 sequence (P17088 whole entry): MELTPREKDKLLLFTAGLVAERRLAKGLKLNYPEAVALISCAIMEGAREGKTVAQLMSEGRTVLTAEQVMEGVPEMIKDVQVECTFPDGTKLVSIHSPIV
T2 sequence (P17086 whole entry): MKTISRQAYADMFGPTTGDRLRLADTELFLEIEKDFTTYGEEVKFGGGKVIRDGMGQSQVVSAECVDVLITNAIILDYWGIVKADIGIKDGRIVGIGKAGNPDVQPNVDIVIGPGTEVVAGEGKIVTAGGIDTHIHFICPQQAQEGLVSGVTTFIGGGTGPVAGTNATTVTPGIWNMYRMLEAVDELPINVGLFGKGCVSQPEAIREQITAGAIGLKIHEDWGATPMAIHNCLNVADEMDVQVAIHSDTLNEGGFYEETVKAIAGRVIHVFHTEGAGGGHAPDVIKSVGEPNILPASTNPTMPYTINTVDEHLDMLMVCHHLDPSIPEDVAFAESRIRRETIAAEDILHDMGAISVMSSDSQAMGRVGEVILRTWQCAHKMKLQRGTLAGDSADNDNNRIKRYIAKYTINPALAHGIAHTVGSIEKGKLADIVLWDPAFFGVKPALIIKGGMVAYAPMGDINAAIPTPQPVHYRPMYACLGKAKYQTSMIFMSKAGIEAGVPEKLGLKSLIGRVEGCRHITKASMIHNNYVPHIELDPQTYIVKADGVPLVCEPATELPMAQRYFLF

urease [8] = tested on: urease; remark: listed apart in the source
urease [9] = tested on: urease; remark: listed apart in the source
UreG = UreG (Helicobacter pylori, UniProt Q09066); assay: Fluorescence-quenching titration of UreG (Kd); format: binding, H. pylori
UreG, sequence (Q09066 whole entry): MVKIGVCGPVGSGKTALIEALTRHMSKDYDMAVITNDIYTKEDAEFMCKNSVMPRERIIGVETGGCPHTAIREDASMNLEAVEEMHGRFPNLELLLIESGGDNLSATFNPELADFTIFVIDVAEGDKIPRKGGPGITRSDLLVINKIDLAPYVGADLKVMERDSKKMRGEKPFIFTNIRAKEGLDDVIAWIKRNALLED
Protocol: Using the relation between the emission intensity at 310 nm and molecule-UreG–bound species, as well as one site-binding model, the Kd values were calculated by a logistic regression model referring to a previous report. […] All fluorescence readings were corrected for the dilution effect.

H. pylori urease [10] = conditions: for Normalized urease activity(%): 40 min
Text: The starting sample with 20% urease activity was used. […] Because zero is not defined on a log scale, the blank values have been entered as 0.1.

CC(=O)NO [AHA, acetohydroxamic acid]
Normalized urease activity(%) (urease [1]; log(AHA[μM]) 1.79588): 92.5521% | Normalized urease activity(%) (urease [1]; log(AHA[μM]) 2.09691): 93.0486% | Normalized urease activity(%) (urease [1]; log(AHA[μM]) 2.39794): 89.0764% | Normalized urease activity(%) (urease [1]; log(AHA[μM]) 2.69897): 86.0973% | Normalized urease activity(%) (urease [1]; log(AHA[μM]) 3): 82.6216% | Normalized urease activity(%) (urease [1]; log(AHA[μM]) 3.30103): 72.6911% | Normalized urease activity(%) (urease [1]; log(AHA[μM]) 3.60206): 51.3406% | Normalized urease activity(%) (urease [1]; log(AHA[μM]) 3.90309): 15.0943% | Normalized urease activity(%) (urease [1]; log(AHA[μM]) 4.20412): 3.674% | Normalized urease activity(%) (urease [1]; log(AHA[μM]) 4.50515): 1.688% | Normalized urease activity(%) (urease [2]; log(AHA[μM]) 1.79588): 82.0618% | Normalized urease activity(%) (urease [2]; log(AHA[μM]) 2.09691): 76.8393% | Normalized urease activity(%) (urease [2]; log(AHA[μM]) 2.39794): 67.9837% | Normalized urease activity(%) (urease [2]; log(AHA[μM]) 2.69897): 58.901% | Normalized urease activity(%) (urease [2]; log(AHA[μM]) 3): 52.7702% | Normalized urease activity(%) (urease [2]; log(AHA[μM]) 3.30103): 45.277% | Normalized urease activity(%) (urease [2]; log(AHA[μM]) 3.60206): 27.5659% | Normalized urease activity(%) (urease [2]; log(AHA[μM]) 3.90309): 11.6712% | Normalized urease activity(%) (urease [2]; log(AHA[μM]) 4.20412): 3.951% | Normalized urease activity(%) (urease [2]; log(AHA[μM]) 4.50515): 2.589% | Ammonia in medium [3]: 2.273 mM | Normalized cell survival (%) [3]: 14.4144% | IC50 (H. pylori urease [4]; AHA incubated with extracted urease, ± SD): 1320 ± 291 µM | Normalized urease activity(%) (AHA) (H. pylori urease [4]; AHA log[μM] 1.89279): 109.4% and 109.395% | Normalized urease activity(%) (AHA) (H. pylori urease [4]; AHA log[μM] 2.19382): 96.0% and 96.0334% | Normalized urease activity(%) (AHA) (H. pylori urease [4]; AHA log[μM] 2.49485): 91.9% and 91.858% | Normalized urease activity(%) (AHA) (H. pylori urease [4]; AHA log[μM] 2.79588): 93.3% and 93.3194% | Normalized urease activity(%) (AHA) (H. pylori urease [4]; AHA log[μM] 3.09691): 51.1% and 51.1482% | Normalized urease activity(%) (AHA) (H. pylori urease [4]; AHA log[μM] 3.39794): 20.5% and 20.4593% | Normalized urease activity(%) (AHA) (H. pylori urease [4]; AHA log[μM] 3.69897): 2.7% and 2.714% | Normalized urease activity(%) (AHA) (H. pylori urease [4]; AHA log[μM] 4): 1.3% and 1.253% | Normalized urease activity(%) (AHA) (H. pylori urease [4]; AHA log[μM] 4.30103): 1.3% and 1.253% | Normalized urease activity(%) (urease [5]; log(AHA[μM]) 1.79588): 78.186% | Normalized urease activity(%) (urease [5]; log(AHA[μM]) 2.09691): 95.4076% | Normalized urease activity(%) (urease [5]; log(AHA[μM]) 2.39794): 91.1022% | Normalized urease activity(%) (urease [5]; log(AHA[μM]) 2.69897): 92.2503% | Normalized urease activity(%) (urease [5]; log(AHA[μM]) 3): 91.3892% | Normalized urease activity(%) (urease [5]; log(AHA[μM]) 3.30103): 81.0563% | Normalized urease activity(%) (urease [5]; log(AHA[μM]) 3.60206): 50.3444% | Normalized urease activity(%) (urease [5]; log(AHA[μM]) 3.90309): 18.7715% | Normalized urease activity(%) (urease [5]; log(AHA[μM]) 4.20412): 5.568% | Normalized urease activity(%) (urease [5]; log(AHA[μM]) 4.50515): 3.846% | Normalized cell survival (%) [6]: 40.5% ± 8.2% and 40.5405% | Normalized urease activity(%) (urease [7]; log(AHA[μM]) 1.29073): 83.9311% | Normalized urease activity(%) (urease [7]; log(AHA[μM]) 1.59176): 78.3381% | Normalized urease activity(%) (urease [7]; log(AHA[μM]) 1.89279): 61.9141% | Normalized urease activity(%) (urease [7]; log(AHA[μM]) 2.19382): 45.934% | Normalized urease activity(%) (urease [7]; log(AHA[μM]) 2.49485): 31.2855% | Normalized urease activity(%) (urease [7]; log(AHA[μM]) 2.79588): 25.6037% | Normalized urease activity(%) (urease [7]; log(AHA[μM]) 3.09691): 17.6136% | Normalized urease activity(%) (urease [7]; log(AHA[μM]) 3.39794): 16.1932% | Normalized urease activity(%) (urease [7]; log(AHA[μM]) 3.69897): 12.3757% | Normalized urease activity(%) (urease [7]; log(AHA[μM]) 4): 7.315% | Normalized urease activity(%) (urease [8]; log(AHA[μM]) 1.39794): 85.3556% | Normalized urease activity(%) (urease [8]; log(AHA[μM]) 2.09691): 97.9079% | Normalized urease activity(%) (urease [8]; log(AHA[μM]) 2.39794): 94.4212% | Normalized urease activity(%) (urease [8]; log(AHA[μM]) 2.69897): 97.2106% | Normalized urease activity(%) (urease [8]; log(AHA[μM]) 3): 105.579% | Normalized urease activity(%) (urease [8]; log(AHA[μM]) 3.30103): 100% | Normalized urease activity(%) (urease [8]; log(AHA[μM]) 3.60206): 74.198% | Normalized urease activity(%) (urease [8]; log(AHA[μM]) 3.90309): 38.6332% | Normalized urease activity(%) (urease [8]; log(AHA[μM]) 4.20412): 16.318% | Normalized urease activity(%) (urease [8]; log(AHA[μM]) 4.50515): 9.344% | Normalized urease activity(%) (urease [9]; log(AHA[μM]) 1.79588): 92.1939% | Normalized urease activity(%) (urease [9]; log(AHA[μM]) 2.09691): 91.7831% | Normalized urease activity(%) (urease [9]; log(AHA[μM]) 2.39794): 89.7288% | Normalized urease activity(%) (urease [9]; log(AHA[μM]) 2.69897): 88.9071% | Normalized urease activity(%) (urease [9]; log(AHA[μM]) 3): 90.1397% | Normalized urease activity(%) (urease [9]; log(AHA[μM]) 3.30103): 80.6902% | Normalized urease activity(%) (urease [9]; log(AHA[μM]) 3.60206): 55.6286% | Normalized urease activity(%) (urease [9]; log(AHA[μM]) 3.90309): 27.691% | Normalized urease activity(%) (urease [9]; log(AHA[μM]) 4.20412): 14.1331% | Normalized urease activity(%) (urease [9]; log(AHA[μM]) 4.50515): 10.8463%

Nc1nc2c(ncn2[C@@H]2O[C@H](COP(=O)(O)OP(=O)(O)OP(=O)(O)O)[C@@H](O)[C@H]2O)c(=O)[nH]1 [GTP, guanosine-5'-triphosphate, reference compound]
Kd (UreG): ~65 µM | fluorescence intensity (a.u.) (UreG; log(ligand[μM]) 0): 3320 a.u. | fluorescence intensity (a.u.) (UreG; log(ligand[μM]) 0.30103): 3210 a.u. | fluorescence intensity (a.u.) (UreG; log(ligand[μM]) 0.60206): 2994.67 a.u. | fluorescence intensity (a.u.) (UreG; log(ligand[μM]) 0.90309): 2943.33 a.u. | fluorescence intensity (a.u.) (UreG; log(ligand[μM]) 1.20412): 2860.67 a.u. | fluorescence intensity (a.u.) (UreG; log(ligand[μM]) 1.50515): 2655 a.u. | fluorescence intensity (a.u.) (UreG; log(ligand[μM]) 1.80618): 2320.33 a.u. | fluorescence intensity (a.u.) (UreG; log(ligand[μM]) 2.10721): 1866.33 a.u. | fluorescence intensity (a.u.) (UreG; log(ligand[μM]) -1.30103): 3394.33 a.u.

[Ni+2] [Ni]
Normalized urease activity(%) (H. pylori urease [10]; supplement 0.05 (head prints CBS(μM )), starting sample 20% activity): 19.0% | Normalized urease activity(%) (H. pylori urease [10]; supplement 0.1 (head prints CBS(μM ))): 18.6% | Normalized urease activity(%) (H. pylori urease [10]; supplement 0.2 (head prints CBS(μM ))): 18.3% | Normalized urease activity(%) (H. pylori urease [10]; supplement 0.4 (head prints CBS(μM ))): 17.5% | restoration of urease activity (H. pylori urease [10]; supplemented to CBS-treated bacterial cell lysate): failed to restore the urease activity completely
